Assay results published in publication PMC3596469 (European journal of pharmaceutical sciences : official …, 2013).
Read-outs that look alike come from different tables or passages of the source.

What was measured:
[1] = for blood levels at the lowest oral dose: oral 0.1 mg/kg, 24 h sampling; for oral bioavailability: from AUC values
[2] = test system: LPS-induced release of inflammatory cytokines in plasma; assay: Plasma cytokines in LPS-challenged murine model; assay type: in vivo, Male Swiss Webster mice
[3] = test system: plasma epoxides and diols (biomarker of sEH action); assay: Plasma oxylipin profile; assay type: in vivo, Male Swiss Webster mice
LPS-challenged mice = assay: Food intake and body weight in LPS-challenged murine model; assay type: in vivo, Male Swiss Webster mice; settings: for animals' appetite, 1st day post LPS challenge: oral administration
[4] = PK after i.v. injection in mice, 2-compartmental analysis; settings: i.v. 0.01 mg/kg
[5] = mouse, in vivo, po, 1 mg/kg; cited from earlier work
Human sEH = target: T1, Human sEH (Homo sapiens, UniProt P34913); assay: Radioactive sEH inhibition assay; assay type: biochemical; settings: read-out: IC50 Human sEH (value in parentheses); [3H] t-DPPO as substrate
T1 sequence (P34913 1-555): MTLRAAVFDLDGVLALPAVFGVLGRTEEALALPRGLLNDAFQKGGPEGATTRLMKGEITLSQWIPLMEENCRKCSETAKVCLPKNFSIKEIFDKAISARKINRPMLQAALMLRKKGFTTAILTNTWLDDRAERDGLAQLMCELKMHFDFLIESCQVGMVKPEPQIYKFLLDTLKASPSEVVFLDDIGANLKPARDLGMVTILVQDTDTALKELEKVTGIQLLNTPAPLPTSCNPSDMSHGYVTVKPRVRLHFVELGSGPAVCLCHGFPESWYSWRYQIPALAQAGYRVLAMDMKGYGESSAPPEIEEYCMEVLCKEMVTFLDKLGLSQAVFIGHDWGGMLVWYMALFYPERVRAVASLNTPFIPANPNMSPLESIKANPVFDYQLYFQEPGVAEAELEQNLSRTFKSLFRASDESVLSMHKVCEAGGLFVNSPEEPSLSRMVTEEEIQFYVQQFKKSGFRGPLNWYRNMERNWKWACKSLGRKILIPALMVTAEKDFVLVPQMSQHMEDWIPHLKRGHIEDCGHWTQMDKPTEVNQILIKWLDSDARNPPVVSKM

[6] = mouse, in vivo, po
[7] = male, Swiss Webster, mouse, whole blood, po, 0.1 mg/kg
[8] = male, Swiss Webster, mouse, whole blood, po, 0.3 mg/kg
[9] = male, Swiss Webster, mouse, whole blood, po, 1 mg/kg
[10] = male, Swiss Webster, mouse, whole blood, po, 3 mg/kg
[11] = LPS 3 mg/kg + inhibitor 3 mg/kg single dose, terminated 48 h
[12] = LPS 3 mg/kg + inhibitor 3 mg/kg, terminated 24 h
[13] = mice, oral gavage 0.1 mg/kg, blood
[14] = mice, oral gavage 0.3 mg/kg, blood
[15] = mice, oral gavage 1.0 mg/kg, blood
[16] = mice, oral gavage 3.0 mg/kg, blood

CS(=O)(=O)N1CCC(NC(=O)Nc2ccc(OC(F)(F)F)cc2)CC1 [TUPS, 1-(1-methanesulfonyl-piperidin-4-yl)-3-(4-trifluoromethoxy-phenyl)-urea]
Cmax [1, 7]: < 0.4 nM
AUC(0-t) [1, 8]: 5.3 µM·h
MRT [1, 8]: 21.5 h
AUC(0-t) [1, 9]: 24.2 µM·h
Cmax [1, 9]: 1650 nM
MRT [1, 9]: 17.4 h
AUC(0-t) [1, 10]: 48.5 µM·h
Cmax [1, 10]: 2860 nM
MRT [1, 10]: 22.7 h
blood levels at the lowest oral dose ([1]; mice): under the respective detection limit

CCC(=O)N1CCC(NC(=O)Nc2ccc(OC(F)(F)F)cc2)CC1 [TPPU, 1-(4-trifluoro-methoxy-phenyl)-3-(1-propionylpiperidin-4-yl)urea]
IL-6 in plasma [2, 11]: 9 ± 0.5 pg/mL
IL-10 in plasma [2, 11]: 7.7 ± 0.5 pg/mL
INF-γ in plasma [2, 11]: 2.0 ± 0.5 pg/mL
MCP-1 in plasma [2, 11]: 260 ± 50 pg/mL
TNF-α in plasma [2, 11]: 11 ± 1 pg/mL
IL-6 in plasma [2, 12]: 118 ± 65 pg/mL
IL-10 in plasma [2, 12]: 8.7 ± 0.4 pg/mL
INF-γ in plasma [2, 12]: 9.7 ± 3.0 pg/mL
MCP-1 in plasma [2, 12]: 1970 ± 900 pg/mL
TNF-α in plasma [2, 12]: 28 ± 14 pg/mL
reduction of cytokine or chemokine release one day after treatment ([2]; LPS-challenged mice): Neither the administration of TPPU nor the t-AUCB treatment demonstrated a beneficial effect
plasma levels of both EETs and EpOMEs ([3]; 1- and 2-day post treatment, LPS-challenged mice): significantly increased
plasma levels of both DHOMEs and DHETs ([3]; 2-day post LPS treatment): significantly decreased
animal's appetite (pilot study) (LPS-challenged mice; 1 mg/kg): no favorable effect was observed
animal's appetite at 2 days post treatment (pilot study) (LPS-challenged mice; oral 3 mg·kg^-1): improved
animals' appetite, 1st day post LPS challenge (LPS-challenged mice; LPS-challenged mice): did not improve
animals' appetite, 2nd day post LPS challenge (LPS-challenged mice; oral, TPPU 3 mg/kg once, t-AUCB 3 mg/kg twice, LPS-challenged mice): significantly improved
AUCt [4]: 3.5 ± 0.4 µM·h
Cl (clearance) [4]: 20 ± 1.7 mL/min/kg
T1/2β (half life of elimination phase) [4]: >24 h
Vdss (volume distribution at steady state) [4]: 4.8 ± 1.8 L/kg
oral bioavailability ([1]; mice, oral 0.1 mg/kg vs i.v. 0.01 mg/kg): 43 ± 25%
blood levels at the lowest oral dose ([1]; mice): above their in vitro IC50 values throughout the sampling time
oral bioavailability ([1]; mice, oral 0.3 mg/kg vs i.v. 0.01 mg/kg): 36 ± 5%
oral bioavailability ([1]; mice, oral 1.0 mg/kg vs i.v. 0.01 mg/kg): 31 ± 2%
oral bioavailability ([1]; mice, oral 3.0 mg/kg vs i.v. 0.01 mg/kg): 18 ± 3%
MRT ([1]; mice, oral gavage 0.1 mg/kg): 56.9 ± 5.4 h
Tmax ([1]; mice, oral gavage 0.1 mg/kg): 2 ± 0 h
Cmax [1, 13]: 445 ± 200 nM
MRT ([1]; mice, oral gavage 0.3 mg/kg): 69.5 ± 2.2 h
Tmax ([1]; mice, oral gavage 0.3 mg/kg): 2 ± 0 h
Cmax [1, 14]: 1560 nM
MRT ([1]; mice, oral gavage 1.0 mg/kg): 26.8 ± 2.2 h
Tmax ([1]; mice, oral gavage 1.0 mg/kg): 2.7 ± 1.2 h
Cmax [1, 15]: 5370 nM
MRT ([1]; mice, oral gavage 3.0 mg/kg): 24.0 ± 0.2 h
Tmax ([1]; mice, oral gavage 3.0 mg/kg): 3.7 ± 1.8 h
Cmax [1, 16]: 7100 nM

CC(=O)N1CCC(NC(=O)NC23CC4CC(CC(C4)C2)C3)CC1 [APAU, 1-(1-acetypiperidin-4-yl)-3-adamantanylurea]
AUCt [5]: 1.4±0.3 0.35±0.15 uM•h
MRT [5]: 20±4.2 22.2±4.3 h

O=C(Nc1ccc(OC(F)(F)F)cc1)NC1CCN(C(=O)C2CC2)CC1 [TCPU, 1-(4-trifluoro-methoxy-phenyl)-3-(1-cyclopropanecarboxylpiperidin-4-yl)urea]
AUCt ([1]; mice, oral gavage 0.1 mg/kg): 2.2 ± 1.1 µM·h
MRT ([1]; mice, oral gavage 0.1 mg/kg): 18.9 ± 6.6 h
Tmax ([1]; mice, oral gavage 0.1 mg/kg): 5.3 ± 1.2 h
Cmax [1, 13]: 270 ± 120 nM
AUCt ([1]; mice, oral gavage 0.3 mg/kg): 16.6 ± 8.8 µM·h
MRT ([1]; mice, oral gavage 0.3 mg/kg): 16.9 ± 5.4 h
Cmax [1, 14]: 1680 nM
AUCt ([1]; mice, oral gavage 1.0 mg/kg): 43.8 ± 5.1 µM·h
MRT ([1]; mice, oral gavage 1.0 mg/kg): 24.0 ± 1.8 h
Tmax ([1]; mice, oral gavage 1.0 mg/kg): 3.2 ± 2.2 h
Cmax [1, 15]: 2560 nM
AUCt ([1]; mice, oral gavage 3.0 mg/kg): 94.3 ± 8.0 µM·h
MRT ([1]; mice, oral gavage 3.0 mg/kg): 32.1 ± 5.6 h
Tmax ([1]; mice, oral gavage 3.0 mg/kg): 3.9 ± 2.5 h
Cmax [1, 16]: 5160 nM

O=C(Nc1ccc(OC(F)(F)F)cc1)N[C@H]1CC[C@H](Oc2ccc(C(=O)O)cc2)CC1 [t-TUCB, trans-4-[4-[3-(4-Trifluoromethoxy-phenyl)-Ureido]-cyclohexyloxy]-Benzoic acid]
Cmax [1, 7]: < 0.4 nM
AUC(0-t) [1, 8]: 0.4 µM·h
Cmax [1, 8]: 45 nM
MRT [1, 8]: 12.6 h
Tmax [1, 8]: 6 h
AUC(0-t) [1, 9]: 4.5 µM·h
Cmax [1, 9]: 410 nM
MRT [1, 9]: 12.6 h
Tmax [1, 9]: 5.9 h
AUC(0-t) [1, 10]: 16.1 µM·h
Cmax [1, 10]: 2120 nM
MRT [1, 10]: 8 h
Tmax [1, 10]: 2.6 h
blood levels at the lowest oral dose ([1]; mice): under the respective detection limit

1-chlorophenyl-3-(1-propionylpiperidin-4-yl)urea [CPPU]
IC50 (Human sEH): 280 nM
AUCt ([6]; 0.1 mg/kg): 2.3 ± 0.4 µM·h
MRT ([6]; 0.1 mg/kg): 13.1 ± 13.5 h
AUCt ([6]; 0.3 mg/kg): 6.1 ± 1.7 µM·h
MRT ([6]; 0.3 mg/kg): 16.4 ± 6.3 h
AUCt ([6]; 1 mg/kg): 31.7 ± 18.4 µM·h
MRT ([6]; 1 mg/kg): 17.2 ± 7.3 h
AUCt ([6]; 3 mg/kg): 140 ± 93 µM·h
MRT ([6]; 3 mg/kg): 17.1 ± 1.3 h

O=C(NC12CC3CC(CC(C3)C1)C2)N[C@H]1CC[C@H](Oc2ccc(C(=O)O)cc2)CC1 [t-AUCB, trans-4-[4-(3-adamantan-1-yl-ureido)-cyclohexyloxy]-benzoic acid, reference compound]
animals' appetite, 1st day post LPS challenge (LPS-challenged mice; LPS-challenged mice): did not improve
